Data published in US20110200992A1, “Biological Compositions, Articles and Methods for Monitoring Sterilization Processes” (priority 2008, published 2011).

What was measured:
spores = assay: Fluorescence over a range of dye concentrations with decreasing concentrations of spores (Example 5); type: cell-based, Gb. stearothermophilus; conditions: for Fluorescence intensity (normalized): ex 485/em 530 nm, 50° C.
Protocol: Dilutions were prepared using Sterile Water For Irrigation (Baxter, Deerfield, Ill.) and tested at a final population ranging between of 1×10^6 and 0 spores. The spore dilutions (100 microlitres) were combined with 200 microlitres of medium, consisting of Acridine Orange and nutrients as described in Example 1, with Acridine Orange concentrations at 1:5000 (0.0066 mM), 1:1000 (0.033 mM) and 1:500 (0.066 mM), each of the resulting mixtures was added to a well of a plate. The plate was subsequently placed in a preheated plate reader (BioTek Synergy 4 plate reader, Winooski, Vt.) at 50° C. and incubated for 60 min, during which fluorescence intensity readings were taken using excitation at 485 nm and emission at 530 nm. A summary of the normalized data is listed below in Table 5a-5c.

[1] = system: Gb. stearothermophilus spores on a polypropylene carrier; assay: Change in fluorescence of biological indicators after lethal and sub-lethal sterilization cycles (Example 4); type: cell-based; conditions: 485/530 nm, 1×E5 spores, 1:5000 dye, incubated 50° C.
Protocol: Eighty biological indicators (BIs) were prepared by coating a suspension of Gb. stearothermophilus spores at a concentration of 1×E5 on a polypropylene carrier. Following drying at 37° C. for 20 min, the BIs were exposed to commonly used sterilization conditions as described below in Tables 4a, 4b, and 4c. Following sterilization the BIs were activated with a medium, exposed to the same sterilization conditions as the spores and containing of a 1:5000 dilution of Acridine Orange along with glucose, fructose, and potassium chloride in water (1 mg/ml, 1 mg/ml, and 3.3 mgs/ml, respectively), 0.02 M alanine, 0.01 M valine, 0.002 M isoleucine, 0.2 mg/ml inosine, and a small amount of Bromo Cresol Purple. The combination of the medium with the spores on the carrier, subjected to lethal and sub-lethal sterilization processes shown in Tables 4a-4c, was incubated at 50° C. for 60 min, and fluorescence intensity readings were taken at 30 and 60 min using excitation at 485 nm and emission at 530 nm.

[2] = 1 min in 132° C. (270° F.) Gravity Cycle, AMSCO EAGLE Model 2013 Steam Sterilizer
[3] = 1 min in 132° C. (270° F.) Vacuum Assisted Cycle, Joslyn BIER Vessel
[4] = 3 min in 132° C. (270° F.) Gravity Cycle, AMSCO EAGLE Model 2013 Steam Sterilizer
[5] = 3 min in 132° C. (270° F.) Vacuum Assisted Cycle, Joslyn BIER Vessel
[6] = 5 min in 121° C. (250° F.) Vacuum Assisted Cycle, Joslyn BIER Vessel
[7] = 15 min in 121° C. (250° F.) Vacuum Assisted Cycle, Joslyn BIER Vessel

CN(C)c1ccc2cc3ccc(N(C)C)cc3nc2c1 [Acridine Orange]
Dependence of signal on dye concentration (spores; 0.0066, 0.033, 0.066 mM): the higher the signal
Detection of spores (lowest spore population shown) (spores; all Acridine Orange concentrations (0.0066, 0.033, 0.066 mM)): Detection of E3 spores was shown
Fluorescence intensity (normalized) (spores; dye 0.0066 mM with nutrients, 0 spores, 0:00:00): 0
Fluorescence intensity (normalized) (spores; dye 0.0066 mM with nutrients, 0 spores, 0:15:00): 711
Fluorescence intensity (normalized) (spores; dye 0.0066 mM with nutrients, 0 spores, 0:30:00): 886.5
Fluorescence intensity (normalized) (spores; dye 0.0066 mM with nutrients, 0 spores, 0:45:00): 1027
Fluorescence intensity (normalized) (spores; dye 0.0066 mM with nutrients, 0 spores, 1:00:00): 1147.5
Fluorescence intensity (normalized) (spores; dye 0.0066 mM with nutrients, E3 spores, 0:00:00): 0
Fluorescence intensity (normalized) (spores; dye 0.0066 mM with nutrients, E3 spores, 0:15:00): 2033
Fluorescence intensity (normalized) (spores; dye 0.0066 mM with nutrients, E3 spores, 0:30:00): 2271.5
Fluorescence intensity (normalized) (spores; dye 0.0066 mM with nutrients, E3 spores, 0:45:00): 2396
Fluorescence intensity (normalized) (spores; dye 0.0066 mM with nutrients, E3 spores, 1:00:00): 2484.5
Fluorescence intensity (normalized) (spores; dye 0.0066 mM with nutrients, E4 spores, 0:00:00): 0
Fluorescence intensity (normalized) (spores; dye 0.0066 mM with nutrients, E4 spores, 0:15:00): 3754.5
Fluorescence intensity (normalized) (spores; dye 0.0066 mM with nutrients, E4 spores, 0:30:00): 4088
Fluorescence intensity (normalized) (spores; dye 0.0066 mM with nutrients, E4 spores, 0:45:00): 4174
Fluorescence intensity (normalized) (spores; dye 0.0066 mM with nutrients, E4 spores, 1:00:00): 4268
Fluorescence intensity (normalized) (spores; dye 0.0066 mM with nutrients, E5 spores, 0:00:00): 0
Fluorescence intensity (normalized) (spores; dye 0.0066 mM with nutrients, E5 spores, 0:15:00): 5224
Fluorescence intensity (normalized) (spores; dye 0.0066 mM with nutrients, E5 spores, 0:30:00): 5364
Fluorescence intensity (normalized) (spores; dye 0.0066 mM with nutrients, E5 spores, 0:45:00): 5373
Fluorescence intensity (normalized) (spores; dye 0.0066 mM with nutrients, E5 spores, 1:00:00): 5406
Fluorescence intensity (normalized) (spores; dye 0.0066 mM with nutrients, E6 spores, 0:00:00): 0
Fluorescence intensity (normalized) (spores; dye 0.0066 mM with nutrients, E6 spores, 0:15:00): 12024.5
Fluorescence intensity (normalized) (spores; dye 0.0066 mM with nutrients, E6 spores, 0:30:00): 15320
Fluorescence intensity (normalized) (spores; dye 0.0066 mM with nutrients, E6 spores, 0:45:00): 16514.5
Fluorescence intensity (normalized) (spores; dye 0.0066 mM with nutrients, E6 spores, 1:00:00): 17130.5
Fluorescence intensity (normalized) (spores; dye 0.033 mM with nutrients, 0 spores, 0:00:00): 0
Fluorescence intensity (normalized) (spores; dye 0.033 mM with nutrients, 0 spores, 0:15:00): 740
Fluorescence intensity (normalized) (spores; dye 0.033 mM with nutrients, 0 spores, 0:30:00): 958
Fluorescence intensity (normalized) (spores; dye 0.033 mM with nutrients, 0 spores, 0:45:00): 1143.5
Fluorescence intensity (normalized) (spores; dye 0.033 mM with nutrients, 0 spores, 1:00:00): 1280
Fluorescence intensity (normalized) (spores; dye 0.033 mM with nutrients, E3 spores, 0:00:00): 0
Fluorescence intensity (normalized) (spores; dye 0.033 mM with nutrients, E3 spores, 0:15:00): 2022.5
Fluorescence intensity (normalized) (spores; dye 0.033 mM with nutrients, E3 spores, 0:30:00): 2281
Fluorescence intensity (normalized) (spores; dye 0.033 mM with nutrients, E3 spores, 0:45:00): 2437
Fluorescence intensity (normalized) (spores; dye 0.033 mM with nutrients, E3 spores, 1:00:00): 2558.5
Fluorescence intensity (normalized) (spores; dye 0.033 mM with nutrients, E4 spores, 0:00:00): 0
Fluorescence intensity (normalized) (spores; dye 0.033 mM with nutrients, E4 spores, 0:15:00): 3467
Fluorescence intensity (normalized) (spores; dye 0.033 mM with nutrients, E4 spores, 0:30:00): 3640.5
Fluorescence intensity (normalized) (spores; dye 0.033 mM with nutrients, E4 spores, 0:45:00): 3724
Fluorescence intensity (normalized) (spores; dye 0.033 mM with nutrients, E4 spores, 1:00:00): 3810.5
Fluorescence intensity (normalized) (spores; dye 0.033 mM with nutrients, E5 spores, 0:00:00): 0
Fluorescence intensity (normalized) (spores; dye 0.033 mM with nutrients, E5 spores, 0:15:00): 5012
Fluorescence intensity (normalized) (spores; dye 0.033 mM with nutrients, E5 spores, 0:30:00): 5029
Fluorescence intensity (normalized) (spores; dye 0.033 mM with nutrients, E5 spores, 0:45:00): 4999
Fluorescence intensity (normalized) (spores; dye 0.033 mM with nutrients, E5 spores, 1:00:00): 5068
Fluorescence intensity (normalized) (spores; dye 0.033 mM with nutrients, E6 spores, 0:00:00): 0
Fluorescence intensity (normalized) (spores; dye 0.033 mM with nutrients, E6 spores, 0:15:00): 14427.5
Fluorescence intensity (normalized) (spores; dye 0.033 mM with nutrients, E6 spores, 0:30:00): 19073.5
Fluorescence intensity (normalized) (spores; dye 0.033 mM with nutrients, E6 spores, 0:45:00): 20802.5
Fluorescence intensity (normalized) (spores; dye 0.033 mM with nutrients, E6 spores, 1:00:00): 21688
Fluorescence intensity (normalized) (spores; dye 0.066 mM with nutrients, 0 spores, 0:00:00): 0.0
Fluorescence intensity (normalized) (spores; dye 0.066 mM with nutrients, 0 spores, 0:15:00): 815.5
Fluorescence intensity (normalized) (spores; dye 0.066 mM with nutrients, 0 spores, 0:30:00): 1026.0
Fluorescence intensity (normalized) (spores; dye 0.066 mM with nutrients, 0 spores, 0:45:00): 1184.5
Fluorescence intensity (normalized) (spores; dye 0.066 mM with nutrients, 0 spores, 1:00:00): 1287.5
Fluorescence intensity (normalized) (spores; dye 0.066 mM with nutrients, E3 spores, 0:00:00): 0.0
Fluorescence intensity (normalized) (spores; dye 0.066 mM with nutrients, E3 spores, 0:15:00): 3420.0
Fluorescence intensity (normalized) (spores; dye 0.066 mM with nutrients, E3 spores, 0:30:00): 3716.0
Fluorescence intensity (normalized) (spores; dye 0.066 mM with nutrients, E3 spores, 0:45:00): 3902.5
Fluorescence intensity (normalized) (spores; dye 0.066 mM with nutrients, E3 spores, 1:00:00): 4000.5
Fluorescence intensity (normalized) (spores; dye 0.066 mM with nutrients, E4 spores, 0:00:00): 0.0
Fluorescence intensity (normalized) (spores; dye 0.066 mM with nutrients, E4 spores, 0:15:00): 3261.5
Fluorescence intensity (normalized) (spores; dye 0.066 mM with nutrients, E4 spores, 0:30:00): 3464.0
Fluorescence intensity (normalized) (spores; dye 0.066 mM with nutrients, E4 spores, 0:45:00): 3586.5
Fluorescence intensity (normalized) (spores; dye 0.066 mM with nutrients, E4 spores, 1:00:00): 3626.5
Fluorescence intensity (normalized) (spores; dye 0.066 mM with nutrients, E5 spores, 0:00:00): 0.0
Fluorescence intensity (normalized) (spores; dye 0.066 mM with nutrients, E5 spores, 0:15:00): 3422.5
Fluorescence intensity (normalized) (spores; dye 0.066 mM with nutrients, E5 spores, 0:30:00): 3533.0
Fluorescence intensity (normalized) (spores; dye 0.066 mM with nutrients, E5 spores, 0:45:00): 3606.0
Fluorescence intensity (normalized) (spores; dye 0.066 mM with nutrients, E5 spores, 1:00:00): 3616.0
Fluorescence intensity (normalized) (spores; dye 0.066 mM with nutrients, E6 spores, 0:00:00): 0.0
Fluorescence intensity (normalized) (spores; dye 0.066 mM with nutrients, E6 spores, 0:15:00): 13727.5
Fluorescence intensity (normalized) (spores; dye 0.066 mM with nutrients, E6 spores, 0:30:00): 15331.5
Fluorescence intensity (normalized) (spores; dye 0.066 mM with nutrients, E6 spores, 0:45:00): 15529.5
Fluorescence intensity (normalized) (spores; dye 0.066 mM with nutrients, E6 spores, 1:00:00): 15629.0
Average Change in Fluorescence at 30 min [1, 2]: 1462
Average Change in Fluorescence at 60 min [1, 2]: 1808
Average Change in Fluorescence at 30 min [1, 3]: 2607
Average Change in Fluorescence at 60 min [1, 3]: 2762
Average Change in Fluorescence at 30 min [1, 4]: 201
Average Change in Fluorescence at 60 min [1, 4]: 22
Average Change in Fluorescence at 30 min [1, 5]: 279
Average Change in Fluorescence at 60 min [1, 5]: 386
Average Change in Fluorescence at 30 min [1, 6]: 2774
Average Change in Fluorescence at 60 min [1, 6]: 3347
Average Change in Fluorescence at 30 min [1, 7]: 383
Average Change in Fluorescence at 60 min [1, 7]: 353
